# Values of other authors in patent publication US8449906B2, “Effervescent compositions comprising phosphonates and methods related thereto” (EffRx Pharmaceuticals, S.A., priority 2002, dated 2013).
compound,measurement,value
COc1ccc2[nH]c([S+]([O-])Cc3ncc(C)c(OC)c3C)nc2c1 (stereo not shown) [omeprazole],pKa,about 3.9
